Columns and labels:
sheep blood cells = test: Hemolytic activity; assay type: cell-based; settings: Ovis aries, Erythrocyte; sheep erythrocytes, 1 h; selection criterion; read-out: IC50 hemolysis
Description: (§1) Toxicity assessment was performed by using sheep blood cells, human renal proximal tubular epithelial HK-2, and human hepatocarcinoma HepG2. Briefly, 8% erythrocyte suspensions were incubated with the test compounds (0–250 µM) for 1 h at 37 °C. After centrifugation, supernatants were transferred to a 96-well plate, and absorbance was measured at 570 nm.
(§2) The HepG2 and HK-2 cells (10^4 cells/well) were cultured in DMEM medium containing 10% fetal bovine serum (FBS) and then placed in a 5% CO2 incubator for 24 h. The culture medium was replaced with fresh DMEM medium containing the compounds (0–250 µM), followed by a further 24 h incubation. Subsequently, 10 µL of CCK-8 was added and incubated for 1 h, and OD450nm values were measured.Hemolysis% = [OD570nm(drug) − OD570nm(blank)]/[OD570nm(TritonX−100) − OD570nm(blank)] × 100%Cell viability% = [OD450nm(drug) − OD450nm(blank)]/[OD450nm(negative) − OD450nm(blank)] × 100%

Cytotoxicity (CCK-8) = assay type: cell-based; settings: human, HK-2 cells and HepG2 cells; HK-2 and HepG2, 24 h; selection criterion
Description: as §1, §2

S. aureus ATCC 29213 [1] = test: Membrane permeability (PI); assay type: cell-based; settings: β,β-Dim 0–32 µg/mL, 1 h
Description: The S. aureus ATCC 29213 bacterial suspension (OD600 = 0.5) was incubated with fluorescent probe propidium iodide (PI, Cat No. C1008S, Beyotime, Shanghai, China, final concentration 10 µM) for 30 min. Then, β,β-Dim (0–32 µg/mL) was added to the PI-labeled suspension in a black 96-well plate and incubated for 1 h. Fluorescence intensity was measured at an excitation/emission wavelength of 535/615 nm. The cytoplasmic membrane permeability of E. coli BW25113, E. coli BW25113-mcr-1, and E. coli BW25113-pmrBR93P induced by β,β-Dim was assessed by preparing spheroplasts.

S. aureus ATCC 29213 [2] = test: Membrane potential, proton gradient and PMF; assay type: cell-based
S. aureus ATCC 29213 [3] = test: Effect of membrane components on antibacterial activity; assay type: cell-based
Description: The effects of membrane components on the antibacterial activity of β,β-Dim were evaluated using the checkerboard method by exogenous addition of phosphatidylethanolamine (PE), phosphatidylglycerol (PG), and cardiolipin (CL). The same procedure was followed with pre-addition of the respective components to CAMHB to explore their impact on the β,β-Dim–colistin combination in E. coli.

[4] = test system: E. coli BW25113, E. coli BW25113-mcr-1, and E. coli BW25113-pmrBR93P; test: Intracellular β,β-Dim content (HPLC-MS/MS); assay type: cell-based; settings: β,β-Dim 16 μg/mL with colistin 0–1 × MIC; three E. coli strains
Description: Overnight cultures E. coli BW25113, E. coli BW25113-mcr-1, and E. coli 1 BW25113-pmrBR93P were diluted to 10^8 CFU/mL and then co-incubated with colistin (0.5 × MIC) in the presence of β,β-Dim (0–4 μg/mL) for 30 min at 37 °C. The cultures were centrifuged and resuspended in 30% methanol. Bacteria were disrupted by sonication and centrifugation, supernatants were diluted in 20% acetonitrile, and intracellular colistin was quantified via HPLC-MS/MS (TQ-XS, Waters, Milford, MA, USA). Analyses were performed on a CORTECS Shield RP C18 column (Waters, Milford, MA, USA) at 40 °C, with a flow rate of 0.4 mL/min and an injection volume of 5 μL. The mobile phases consisted of solvent A (0.5% formic acid and acetonitrile in water) and solvent B (0.5% formic acid in water). Colistin was detected in positive ESI mode with ion transitions […] and m/z 386.0 > 101.0. […] Mobile phases included solvent A (acetonitrile) and solvent B (water). β,β-Dim was detected in the negative electrospray ionization (ESI) mode with ion transitions m/z 369.1 > 269.0 and m/z 369.1 > 241.0.

[5] = acute oral, mice; cited from earlier work
[6] = rats; cited from earlier work
[7] = cited from earlier work
six susceptible strains = test: Checkerboard assay, six susceptible strains (summary); assay type: cell-based; settings: with β,β-Dim
Description: (§3) The FICI of β,β-Dim–colistin combination was determined by a checkerboard assay. Briefly, two-fold serial dilutions of β,β-Dim and colistin were prepared in a 96-well plate. After incubation at 37 °C for 18 h with bacterial suspension (10^6 CFU/mL), OD600 values were measured. FICI = (MICβ,β-Dim in combination/MICβ,β-Dim) + (MICcolistin in combination/MICcolistin). The synergistic effect of β,β-Dim with other antibiotics was measured in the same way. Synergy was considered to be an FICI ≤ 0.5.

[8] = test system: K. pneumoniae (including mcr-1, mcr-8, mcr-9, pmrA/B, phoP, and mgrB); test: Checkerboard assay, colistin-resistant K. pneumoniae (summary); assay type: cell-based; settings: with β,β-Dim
Description: as §3

[9] = test system: E. coli (including mcr-1, mcr-3, and pmrA/B); test: Checkerboard assay, colistin-resistant E. coli (summary); assay type: cell-based; settings: with β,β-Dim
Description: as §3

K. pneumoniae 667 = test: Murine systemic (abdominal) infection model; assay type: in vivo; settings: mice
Description: Mice were randomly assigned to five groups (n = 10) and infected intraperitoneally with K. pneumoniae 667 (8 × 10^6 CFUs). One hour post-infection, treatments were administered intraperitoneally: PBS, β,β-Dim (2 mg/kg), colistin (0.2 mg/kg), or β,β-Dim combined with colistin (2 + 0.2 mg/kg). Survival was continuously monitored. Upon death, the heart, liver, spleen, lungs, and kidney were immediately collected. At five days post-infection, surviving mice were euthanized, and the same organs were harvested. Half of each organ was weighed, homogenized, diluted, and plated on LA plates for bacterial colony enumeration. The remaining tissue samples were used for histopathological analysis.

| Molecule | IC50 (sheep blood cells) [µM] | IC50 at 24 h (Cytotoxicity (CCK-8)) [µM] | membrane permeability (PI fluorescence intensity) (S. aureus ATCC 29213 [1]) | membrane potential, proton gradient, PMF (S. aureus ATCC 29213 [2]) | antibacterial activity with exogenous PE, PG, and CL (S. aureus ATCC 29213 [3]) | increase of MIC by CL (S. aureus ATCC 29213 [3]; CL 40 μM) [fold] | intracellular β,β-Dim accumulation [4] | median lethal dose (LD50) [5] | maximum tolerable dose [6] | no-observed-adverse-effect level (NOAEL) [6] [mg/kg] | lipophilicity [7] | reduction of colistin MIC (six susceptible strains) | enhancement of colistin activity (MIC reduction) [8] | improvement of colistin efficacy (MIC reduction) [9] | survival rate (K. pneumoniae 667; day 5 post-infection, single i.p. β,β-Dim 2 mg/kg, colistin 0.2 mg/kg) [%] | histopathological analysis (tissue damage) (K. pneumoniae 667; heart, liver, spleen, lung, kidney) |
| --- | --- | --- | --- | --- | --- | --- | --- | --- | --- | --- | --- | --- | --- | --- | --- | --- |
| CC(C)=CC[C@H](OC(=O)C=C(C)C)C1=CC(=O)c2c(O)ccc(O)c2C1=O [β,β-Dim, β,β-dimethylacrylalkannin] | > 10 | > 10 | increased membrane permeability in a concentration-dependent manner | increased membrane potential in S. aureus ATCC 29213, reduced the proton gradient, and dissipated the PMF | attenuated the antibacterial activity | 4 | approximately 60 ng per 10^8 CFUs | exceeds 10 g/kg | exceeds 10 g/kg | 10 | high lipophilicity | – | – | – | – | – |
| colistin | – | – | – | – | – | – | – | – | – | – | – | 4–64 fold | 8–1024 fold | 4–32 fold | 20 | partially alleviated these lesions |

From article PMC12837263, “β,β-Dimethylacrylalkannin Restores Colistin Efficacy Against mcr- and TCS-Mediated Resistant Gram-Negative Bacteria via Membrane Disturbance” (Antibiotics, 2025)
